Values of other authors, collected in patent US20200276216A1, “INHIBITION OF GLYCOLYSIS WITH 2-DEOXY-D-GLUCOSE AND D-LACTIC ACID DIMER” (priority 2020, published 2020).

Experiments:
cancer cells = details: dose dependent, exclusive of its ability to lower pH
[1] = in vivo, po
[2] = in vivo

Row | half-life [1] | Structure (SMILES) | selectivity of action in vitro (cancer cells) | estimated maximum approximate dose before side effects become clinically significant [2]
1 | – | C[C@@H](O)C(=O)O[C@H](C)C(=O)O [DLAD, D-Lactic Acid Dimer] | selective for cancer cells | –
2 | 4.5 to 8.2 h | O=CC[C@@H](O)[C@H](O)[C@H](O)CO [2DG, 2-Dexoxy-D-Glucose] | – | ~60 mg/kg/day
